From PubChem BioAssay (NCI)
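Protocol summary: plate cells (96-well), add compound at 5 concentrations, incubate 48 h, interpolate endpoints linearly. GI50 marks 50% less growth. TGI denotes the concentration required for complete inhibition of growth.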

Assays:
Assay in all cases: growth of human tumour cells (NCI), 48 h
[1] = test system: SNB-75 CNS
[2] = test system: K-562 leukemia
[3] = test system: SK-MEL-2 melanoma
[4] = test system: A549 NSCLC
[5] = test system: NCI-H460 lung
[6] = test system: M14 melanoma
[7] = test system: A498 renal
[8] = test system: OVCAR-4 ovarian
[9] = test system: LOX IMVI melanoma
[10] = test system: SK-OV-3 ovarian
[11] = test system: NCI-H522 lung
[12] = test system: SK-MEL-28 melanoma
[13] = test system: 786-0 renal
[14] = test system: CAKI-1 renal
[15] = test system: HOP-62 NSCLC
[16] = test system: SF-295 CNS
[17] = test system: COLO 205 colon
[18] = test system: PC-3 prostate
[19] = test system: OVCAR-8 ovarian
[20] = test system: SW-620 colon
[21] = test system: U251 CNS
[22] = test system: DU-145 prostate
[23] = test system: SNB-19 CNS
[24] = test system: NCI-H23 lung
[25] = test system: UACC-62 melanoma
[26] = test system: MDA-MB-435
[27] = test system: KM12 colon
[28] = test system: T-47D breast
[29] = test system: SK-MEL-5 melanoma
[30] = test system: HS 578T breast
[31] = test system: HCC-2998 colon
[32] = test system: RPMI-8226 leukemia
[33] = test system: IGROV1 ovarian
[34] = test system: HCT-15 colon
[35] = test system: ACHN renal
[36] = test system: SN12C renal
[37] = test system: NCI/ADR-RES ovarian
[38] = test system: EKVX NSCLC
[39] = test system: SF-539 CNS
[40] = test system: UACC-257 melanoma
[41] = test system: SR leukemia
[42] = test system: UO-31 renal
[43] = test system: RXF 393 renal
[44] = test system: OVCAR-3 ovarian
[45] = test system: MALME-3M melanoma
[46] = test system: BT-549 breast
[47] = test system: MDA-MB-231 breast
[48] = test system: TK-10 renal
[49] = test system: MOLT-4 leukemia
[50] = test system: MCF7 breast
[51] = test system: HOP-92 NSCLC
[52] = test system: HL-60(TB) leukemia
[53] = test system: HCT-116 colon
[54] = test system: SF-268 CNS
[55] = test system: OVCAR-5 ovarian
[56] = test system: NCI-H226 lung
[57] = test system: HT29 colon
[58] = test system: CCRF-CEM leukemia

COc1cc(N2CCN(C(C)C)CC2)ccc1Nc1nc(Nc2ccc(F)cc2C(=O)NCC(O)CO)c2cc[nH]c2n1 (stereo unspecified)
GI50 [1]: 13.3 µM
TGI [1]: > 25 µM
GI50 [2]: > 19.9 µM
TGI [2]: > 25 µM
GI50 [3]: 4.18 µM
TGI [3]: > 23.6 µM
GI50 [4]: 5.76 µM
TGI [4]: > 25 µM
GI50 [5]: 6.05 µM
TGI [5]: 19.4 µM
GI50 [6]: 12 µM
TGI [6]: > 25 µM
GI50 [7]: 2.5 µM
TGI [7]: > 25 µM
GI50 [8]: > 25 µM
TGI [8]: > 25 µM
GI50 [9]: 1.64 µM
TGI [9]: > 25 µM
GI50 [10]: 6.85 µM
TGI [10]: > 25 µM
GI50 [11]: 4.79 µM
TGI [11]: > 25 µM
GI50 [12]: > 25 µM
TGI [12]: > 25 µM
GI50 [13]: > 23.3 µM
TGI [13]: > 25 µM
GI50 [14]: > 25 µM
TGI [14]: > 25 µM
GI50 [15]: 4.09 µM
TGI [15]: > 25 µM
GI50 [16]: 11.4 µM
TGI [16]: > 25 µM
GI50 [17]: 0.526 µM
TGI [17]: > 9.9 µM
GI50 [18]: > 25 µM
TGI [18]: > 25 µM
GI50 [19]: 16.3 µM
TGI [19]: > 25 µM
GI50 [20]: 2.05 µM
TGI [20]: > 25 µM
GI50 [21]: 5.22 µM
TGI [21]: > 25 µM
GI50 [22]: 3.73 µM
TGI [22]: > 25 µM
GI50 [23]: 7.41 µM
TGI [23]: > 25 µM
GI50 [24]: 4.22 µM
TGI [24]: > 23.3 µM
GI50 [25]: 9.87 µM
TGI [25]: > 25 µM
GI50 [26]: 4.99 µM
TGI [26]: > 25 µM
GI50 [27]: 10.6 µM
TGI [27]: > 25 µM
GI50 [28]: 7.52 µM
TGI [28]: > 25 µM
GI50 [29]: 11.4 µM
TGI [29]: > 25 µM
GI50 [30]: 6.9 µM
TGI [30]: > 25 µM
GI50 [31]: 7.21 µM
TGI [31]: > 25 µM
GI50 [32]: 15 µM
TGI [32]: > 25 µM
GI50 [33]: 11.1 µM
TGI [33]: > 25 µM
GI50 [34]: > 25 µM
TGI [34]: > 25 µM
GI50 [35]: > 25 µM
TGI [35]: > 25 µM
GI50 [36]: 7.62 µM
TGI [36]: > 25 µM
GI50 [37]: > 25 µM
TGI [37]: > 25 µM
GI50 [38]: > 13.8 µM
TGI [38]: > 25 µM
GI50 [39]: 5.13 µM
TGI [39]: > 25 µM
GI50 [40]: 2.87 µM
TGI [40]: > 25 µM
GI50 [41]: 1.13 µM
TGI [41]: > 14 µM
GI50 [42]: > 25 µM
TGI [42]: > 25 µM
GI50 [43]: 11.4 µM
TGI [43]: > 25 µM
GI50 [44]: > 25 µM
TGI [44]: > 25 µM
GI50 [45]: 4.65 µM
TGI [45]: > 25 µM
GI50 [46]: 8.23 µM
TGI [46]: > 25 µM
GI50 [47]: 13.6 µM
TGI [47]: > 25 µM
GI50 [48]: 11.9 µM
TGI [48]: > 25 µM
GI50 [49]: 8.68 µM
TGI [49]: > 25 µM
GI50 [50]: 0.276 µM
TGI [50]: > 25 µM
GI50 [51]: 0.182 µM
TGI [51]: 2.09 µM
GI50 [52]: 1.08 µM
TGI [52]: 13.6 µM
GI50 [53]: 1.69 µM
TGI [53]: > 25 µM
GI50 [54]: 6.89 µM
TGI [54]: > 25 µM
GI50 [55]: 4.28 µM
TGI [55]: > 25 µM
GI50 [56]: 5.04 µM
TGI [56]: 19.9 µM
GI50 [57]: 1.25 µM
TGI [57]: > 25 µM
GI50 [58]: 2.65 µM
TGI [58]: > 25 µM
